Results published in ChEMBL document CHEMBL4196035, “Discovery and optimization of ATX inhibitors via modeling, synthesis and biological evaluation” (Eur J Med Chem, 2018).

Legend:
Autotaxin [1] = molecular target: T1, Autotaxin (Homo sapiens, UniProt Q13822); assay: Inhibition of human ENPP2 using FS3 as substrate measured every 5 mins for 30 mins by fluorescence assay
Autotaxin [2] = molecular target: T1, Autotaxin; assay: Inhibition of human ENPP2 using bis-pNPP as substrate measured every 10 secs for 10 mins by spectrophotometric assay
Autotaxin [3] = molecular target: T1, Autotaxin; assay: Inhibition of ENPP2 in human plasma using LPC as substrate preincubated for 15 mins followed by substrate addition measured after 3 hrs by LC-MS/MS analysis
Autotaxin [4] = molecular target: T1, Autotaxin; assay: Inhibition of ENPP2 in human SKHEP1 cells using LPC as substrate preincubated for 15 mins followed by substrate addition measured after 3 hrs by LC-MS/MS analysis; format: cell-based
Autotaxin [5] = molecular target: T1, Autotaxin; assay: Inhibition of ENPP2 in human A2058 cells using LPC as substrate preincubated for 15 mins followed by substrate addition measured after 3 hrs by LC-MS/MS analysis; format: cell-based
[6] = AUC in Sprague-Dawley rat at 2 mg/kg, iv administered as single bolus dose by HPLC-MS/MS analysis; format: ADME, organism-based; conditions: in vivo
Rattus norvegicus [7] = assay: Dose normalized AUC in Sprague-Dawley rat at 2 mg/kg, iv administered as single bolus dose by HPLC-MS/MS analysis; format: ADME, organism-based; conditions: in vivo
[8] = Clearance in Sprague-Dawley rat at 2 mg/kg, iv administered as single bolus dose by HPLC-MS/MS analysis; format: ADME, organism-based; conditions: in vivo
[9] = Volume of distribution at steady state in Sprague-Dawley rat at 2 mg/kg, iv administered as single bolus dose by HPLC-MS/MS analysis; format: ADME, organism-based; conditions: in vivo, read-out: Vdss
[10] = Cmax in Sprague-Dawley rat at 2 mg/kg, iv administered as single bolus dose by HPLC-MS/MS analysis; format: ADME, organism-based; design: dose 2 mg/kg, route intravenous; conditions: in vivo
Rattus norvegicus [11] = assay: Dose normalized Cmax in Sprague-Dawley rat at 2 mg/kg, iv administered as single bolus dose by HPLC-MS/MS analysis; format: ADME, organism-based; conditions: in vivo
[12] = Tmax in Sprague-Dawley rat at 2 mg/kg, iv administered as single bolus dose by HPLC-MS/MS analysis; format: ADME, organism-based; conditions: in vivo
[13] = Terminal half life in Sprague-Dawley rat at 2 mg/kg, iv administered as single bolus dose by HPLC-MS/MS analysis; format: ADME, organism-based; conditions: in vivo, read-out: beta t1/2 (converted)
[14] = AUC in Sprague-Dawley rat at 10 mg/kg, iv administered as single bolus dose by HPLC-MS/MS analysis; format: ADME, organism-based; conditions: in vivo
Rattus norvegicus [15] = assay: Dose normalized AUC in Sprague-Dawley rat at 10 mg/kg, iv administered as single bolus dose by HPLC-MS/MS analysis; format: ADME, organism-based; conditions: in vivo
[16] = Clearance in Sprague-Dawley rat at 10 mg/kg, iv administered as single bolus dose by HPLC-MS/MS analysis; format: ADME, organism-based; conditions: in vivo
[17] = Volume of distribution at steady state in Sprague-Dawley rat at 10 mg/kg, iv administered as single bolus dose by HPLC-MS/MS analysis; format: ADME, organism-based; conditions: in vivo, read-out: Vdss
[18] = Cmax in Sprague-Dawley rat at 10 mg/kg, iv administered as single bolus dose by HPLC-MS/MS analysis; format: ADME, organism-based; design: dose 10 mg/kg, route intravenous; conditions: in vivo
Rattus norvegicus [19] = assay: Dose normalized Cmax in Sprague-Dawley rat at 10 mg/kg, iv administered as single bolus dose by HPLC-MS/MS analysis; format: ADME, organism-based; conditions: in vivo
[20] = Tmax in Sprague-Dawley rat at 10 mg/kg, iv administered as single bolus dose by HPLC-MS/MS analysis; format: ADME, organism-based; conditions: in vivo
[21] = Terminal half life in Sprague-Dawley rat at 10 mg/kg, iv administered as single bolus dose by HPLC-MS/MS analysis; format: ADME, organism-based; conditions: in vivo, read-out: beta t1/2 (converted)
[22] = AUC in Sprague-Dawley rat at 20 mg/kg, iv administered as single bolus dose by HPLC-MS/MS analysis; format: ADME, organism-based; conditions: in vivo
Rattus norvegicus [23] = assay: Dose normalized AUC in Sprague-Dawley rat at 20 mg/kg, iv administered as single bolus dose by HPLC-MS/MS analysis; format: ADME, organism-based; conditions: in vivo
[24] = Clearance in Sprague-Dawley rat at 20 mg/kg, iv administered as single bolus dose by HPLC-MS/MS analysis; format: ADME, organism-based; conditions: in vivo
[25] = Volume of distribution at steady state in Sprague-Dawley rat at 20 mg/kg, iv administered as single bolus dose by HPLC-MS/MS analysis; format: ADME, organism-based; conditions: in vivo, read-out: Vdss
[26] = Cmax in Sprague-Dawley rat at 20 mg/kg, iv administered as single bolus dose by HPLC-MS/MS analysis; format: ADME, organism-based; design: dose 20 mg/kg, route intravenous; conditions: in vivo
Rattus norvegicus [27] = assay: Dose normalized Cmax in Sprague-Dawley rat at 20 mg/kg, iv administered as single bolus dose by HPLC-MS/MS analysis; format: ADME, organism-based; conditions: in vivo
[28] = Tmax in Sprague-Dawley rat at 20 mg/kg, iv administered as single bolus dose by HPLC-MS/MS analysis; format: ADME, organism-based; conditions: in vivo
[29] = Terminal half life in Sprague-Dawley rat at 20 mg/kg, iv administered as single bolus dose by HPLC-MS/MS analysis; format: ADME, organism-based; conditions: in vivo, read-out: beta t1/2 (converted)
[30] = Half life in human liver microsomes at 5 uM preincubated for 10 mins followed by NADPH addition measured up to 60 mins by LC-MS/MS analysis; format: ADME, microsome
[31] = Half life in Sprague-Dawley rat liver microsomes at 5 uM preincubated for 10 mins followed by NADPH addition measured up to 60 mins by LC-MS/MS analysis; format: ADME, microsome
[32] = Metabolic stability in human liver microsomes assessed as parent compound remaining at 5 uM preincubated for 10 mins followed by NADPH addition measured after 60 mins by LC-MS/MS analysis; format: ADME, microsome; conditions: read-out: Stability
[33] = Metabolic stability in Sprague-Dawley rat liver microsomes assessed as parent compound remaining at 5 uM preincubated for 10 mins followed by NADPH addition measured after 60 mins by LC-MS/MS analysis; format: ADME, microsome; conditions: read-out: Stability

`O=C(O)Cc1ccc(NC(=O)C2CCN(C(=O)OCc3cc(Cl)cc(Cl)c3)CC2)cc1` showed an IC50 (Autotaxin [1]) of 8.44 nM and an IC50 (Autotaxin [2]) of 439 nM.
`O=C(Nc1nc(CP(=O)(O)O)cs1)C1CCN(C(=O)OCc2cc(Cl)cc(Cl)c2)CC1` showed an IC50 (Autotaxin [1]) of 1.75 nM and an IC50 (Autotaxin [2]) of 26.5 nM.
`O=C(Nc1ccc(CP(=O)(O)O)cc1)C1CCN(C(=O)OCc2ccccc2F)CC1` gave an IC50 (Autotaxin [1]) of 7.13 nM and an IC50 (Autotaxin [2]) of 453 nM.
`O=C(Nc1ccc(CP(=O)(O)O)cc1)C1CCN(C(=O)OCc2cccc(Cl)c2)CC1` showed an IC50 (Autotaxin [1]) of 1.79 nM and an IC50 (Autotaxin [2]) of 39.6 nM.
In the case of `O=C(Nc1ccc(CP(=O)(O)O)cc1)C1CCN(C(=O)OCc2ccccc2Cl)CC1`, the IC50 (Autotaxin [1]) is reported as 3.29 nM and the IC50 (Autotaxin [2]) is reported as 213 nM.
In the case of `O=C(Nc1ccc(CP(=O)(O)O)cc1)C1CCN(C(=O)OCc2cc(Cl)cc(Cl)c2)CC1`, the IC50 (Autotaxin [1]) is reported as 1.23 nM, the IC50 (Autotaxin [2]) is reported as 2.18 nM and the IC50 (Autotaxin [3]) is reported as 136 nM. For the same molecule, the IC50 (Autotaxin [4]) was 7.9 nM, the IC50 (Autotaxin [5]) was 1.3 nM and the AUC [6] was 3050 ng·h/mL. The AUC/dose (Rattus norvegicus [7]) was 1.53 kg·h/L, the clearance [8] was 11.3 mL/min/kg and the Vd [9] was 0.15 L/kg. It also gave a Cmax [10] of 33.1 µg/mL, a Cmax/dose (Rattus norvegicus [11]) of 16.6 kg/L and a Tmax [12] of 1.2 min. It also gave a half-life [13] of 17.4 min, an AUC [14] of 12700 ng·h/mL and an AUC/dose (Rattus norvegicus [15]) of 1.27 kg·h/L. It also gave a clearance [16] of 13.3 mL/min/kg, a Vd [17] of 0.33 L/kg and a Cmax [18] of 117 µg/mL. For the same molecule, the Cmax/dose (Rattus norvegicus [19]) was 11.7 kg/L, the Tmax [20] was 1.2 min and the half-life [21] was 42.6 min. The AUC [22] was 27000 ng·h/mL, the AUC/dose (Rattus norvegicus [23]) was 1.35 kg·h/L and the clearance [24] was 12.2 mL/min/kg. For the same molecule, the Vd [25] was 2.24 L/kg, the Cmax [26] was 200 µg/mL and the Cmax/dose (Rattus norvegicus [27]) was 9.98 kg/L. The Tmax [28] was 1.2 min, the half-life [29] was 245 min and the half-life at 5 µM [30] was greater than 60 min. The half-life at 5 µM [31] was greater than 60 min, the remaining at 1 h, 5 µM [32] was greater than 99.9% and the remaining at 1 h, 5 µM [33] was greater than 99.9%.
In the case of `O=C(NO)c1ccc(NC(=O)C2CCN(C(=O)OCc3cc(Cl)cc(Cl)c3)CC2)cc1`, the IC50 (Autotaxin [1]) is reported as 18.7 nM and the IC50 (Autotaxin [2]) is reported as 496 nM.
Work on `NS(=O)(=O)Nc1ccc(NC(=O)C2CCN(C(=O)OCc3cc(Cl)cc(Cl)c3)CC2)cc1` yielded an IC50 (Autotaxin [1]) of 8.9 nM and an IC50 (Autotaxin [2]) of 250 nM.
`O=C(NC1CCN(C(=O)OCc2cc(Cl)cc(Cl)c2)CC1)c1ccc(CP(=O)(O)O)cc1` showed an IC50 (Autotaxin [1]) of 1.36 nM and an IC50 (Autotaxin [2]) of 5.22 nM.
Molecule `O=C(NC1CCN(C(=O)OCc2cc(Cl)cc(Cl)c2)C1)c1nc(CP(=O)(O)O)cs1` (centres undefined) has an IC50 (Autotaxin [1]) of 3.71 nM and an IC50 (Autotaxin [2]) of 54.7 nM.
Work on `NS(=O)(=O)Cc1ccc(NC(=O)C2CCN(C(=O)OCc3cc(Cl)cc(Cl)c3)CC2)cc1` yielded an IC50 (Autotaxin [1]) of 4.62 nM and an IC50 (Autotaxin [2]) of 73.5 nM.
Molecule `O=C(Nc1ccc(CP(=O)(O)O)cc1)C1CCN(C(=O)OCc2ccc(OC(F)(F)F)cc2)CC1` has an IC50 (Autotaxin [1]) of 1.97 nM and an IC50 (Autotaxin [2]) of 3.12 nM.
For `O=C(Nc1ccc(CP(=O)(O)O)cc1)C1CCN(C(=O)OCc2ccccc2)CC1`, the IC50 (Autotaxin [1]) was 7.17 nM and the IC50 (Autotaxin [2]) was 255 nM.
Work on `O=C(Nc1ccc(CP(=O)(O)O)cc1)C1CCN(C(=O)OCc2ccc(OC(F)(F)F)cc2F)CC1` yielded an IC50 (Autotaxin [1]) of 1.67 nM and an IC50 (Autotaxin [2]) of 2.78 nM.
